Results published in PubChem BioAssay (NCI).
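Cultured in 96-well plates, cells were exposed to test compound for 48 hours across five concentrations. At the TGI there is no net growth.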

How the values were obtained:
Experiment in all cases: NCI-60 cell line screen, 48 h
[1] = system: SF-268 CNS
[2] = system: SK-MEL-28 melanoma
[3] = system: MOLT-4 leukemia
[4] = system: HCT-116 colon
[5] = system: DU-145 prostate
[6] = system: UACC-257 melanoma
[7] = system: UO-31 renal
[8] = system: CCRF-CEM leukemia
[9] = system: SN12C renal
[10] = system: NCI/ADR-RES ovarian
[11] = system: MCF7 breast
[12] = system: SNB-19 CNS
[13] = system: SF-539 CNS
[14] = system: OVCAR-3 ovarian
[15] = system: SK-MEL-2 melanoma
[16] = system: K-562 leukemia
[17] = system: SK-OV-3 ovarian
[18] = system: TK-10 renal
[19] = system: SF-295 CNS
[20] = system: MALME-3M melanoma
[21] = system: SNB-75 CNS
[22] = system: NCI-H226 lung
[23] = system: OVCAR-8 ovarian
[24] = system: OVCAR-5 ovarian
[25] = system: ACHN renal
[26] = system: SW-620 colon
[27] = system: RPMI-8226 leukemia
[28] = system: NCI-H460 lung
[29] = system: COLO 205 colon
[30] = system: HOP-62 NSCLC
[31] = system: MDA-N
[32] = system: U251 CNS
[33] = system: HOP-92 NSCLC
[34] = system: 786-0 renal
[35] = system: LOX IMVI melanoma
[36] = system: CAKI-1 renal
[37] = system: MDA-MB-231 breast
[38] = system: BT-549 breast
[39] = system: OVCAR-4 ovarian
[40] = system: HCT-15 colon
[41] = system: EKVX NSCLC
[42] = system: A549 NSCLC
[43] = system: M14 melanoma
[44] = system: A498 renal
[45] = system: UACC-62 melanoma
[46] = system: KM12 colon
[47] = system: NCI-H522 lung
[48] = system: PC-3 prostate
[49] = system: HS 578T breast
[50] = system: IGROV1 ovarian
[51] = system: SK-MEL-5 melanoma
[52] = system: HL-60(TB) leukemia
[53] = system: MDA-MB-435
[54] = system: RXF 393 renal
[55] = system: HT29 colon
[56] = system: T-47D breast
[57] = system: NCI-H23 lung

O=C(c1ccccc1Cl)n1oc2ccccc2c1=O
TGI [1]: > 100 µM
TGI [2]: > 100 µM
TGI [3]: 51.3 µM
TGI [4]: > 100 µM
TGI [5]: > 100 µM
TGI [6]: > 100 µM
TGI [7]: > 100 µM
TGI [8]: 74 µM
TGI [9]: > 100 µM
TGI [10]: > 100 µM
TGI [11]: > 100 µM
TGI [12]: > 100 µM
TGI [13]: > 100 µM
TGI [14]: > 100 µM
TGI [15]: > 100 µM
TGI [16]: > 100 µM
TGI [17]: > 100 µM
TGI [18]: > 100 µM
TGI [19]: > 100 µM
TGI [20]: > 100 µM
TGI [21]: > 100 µM
TGI [22]: > 100 µM
TGI [23]: > 100 µM
TGI [24]: > 100 µM
TGI [25]: > 100 µM
TGI [26]: > 100 µM
TGI [27]: 68.8 µM
TGI [28]: > 100 µM
TGI [29]: > 100 µM
TGI [30]: > 100 µM
TGI [31]: > 100 µM
TGI [32]: > 100 µM
TGI [33]: > 100 µM
TGI [34]: > 100 µM
TGI [35]: > 100 µM
TGI [36]: > 100 µM
TGI [37]: > 100 µM
TGI [38]: > 100 µM
TGI [39]: > 100 µM
TGI [40]: > 100 µM
TGI [41]: > 100 µM
TGI [42]: > 100 µM
TGI [43]: > 100 µM
TGI [44]: > 100 µM
TGI [45]: > 100 µM
TGI [46]: > 100 µM
TGI [47]: > 100 µM
TGI [48]: > 100 µM
TGI [49]: > 100 µM
TGI [50]: > 100 µM
TGI [51]: > 100 µM
TGI [52]: 51 µM
TGI [53]: > 100 µM
TGI [54]: > 100 µM
TGI [55]: > 100 µM
TGI [56]: > 100 µM

CCOC(=O)C1(C/C=C/CCl)CCCC1=O (centres undefined)
TGI [1]: 68.1 µM
TGI [2]: 50.6 µM
TGI [3]: > 100 µM
TGI [4]: 34.9 µM
TGI [5]: > 100 µM
TGI [6]: > 100 µM
TGI [7]: 39.7 µM
TGI [8]: > 100 µM
TGI [9]: 59.1 µM
TGI [10]: 37.2 µM
TGI [11]: 48.4 µM
TGI [12]: 61.2 µM
TGI [13]: 40.6 µM
TGI [15]: 59 µM
TGI [17]: > 100 µM
TGI [18]: 68.4 µM
TGI [19]: > 100 µM
TGI [57]: 38.3 µM
TGI [20]: 45.4 µM
TGI [21]: 61.8 µM
TGI [22]: 36.2 µM
TGI [23]: 38.2 µM
TGI [24]: 39.1 µM
TGI [25]: 36.6 µM
TGI [26]: 42.1 µM
TGI [28]: > 100 µM
TGI [29]: 72.9 µM
TGI [30]: 45.1 µM
TGI [31]: 35.1 µM
TGI [32]: 86.7 µM
TGI [34]: 49.4 µM
TGI [35]: 30.4 µM
TGI [36]: 79.5 µM
TGI [37]: 42.5 µM
TGI [38]: 40.8 µM
TGI [39]: 93.7 µM
TGI [40]: 40 µM
TGI [41]: 37.9 µM
TGI [42]: 49.4 µM
TGI [43]: 38.5 µM
TGI [44]: > 100 µM
TGI [45]: 30.2 µM
TGI [46]: 41.2 µM
TGI [47]: 47 µM
TGI [48]: > 100 µM
TGI [49]: > 100 µM
TGI [50]: 42 µM
TGI [51]: 33.9 µM
TGI [52]: > 100 µM
TGI [53]: 44 µM
TGI [54]: 32.7 µM
TGI [55]: 68.4 µM
TGI [56]: 51.3 µM
